Reference: ChEMBL document CHEMBL1123520, “Digitoxigenin 3-O-beta-D-furanosides” (1986)

Columns and labels:
Format in all cases: functional
Cavia porcellus [1] = species: Cavia porcellus; assay: Dose required to produce arrhythmia (A) on Guinea pig atria.
Cavia porcellus [2] = species: Cavia porcellus; assay: Dose required to produce 75% increase in developed tension of inotropic effect in guinea pig atria.
Cavia porcellus [3] = species: Cavia porcellus; assay: Dose required to produce 50% increase in developed tension of inotropic effect in guinea pig atria.
Cavia porcellus [4] = species: Cavia porcellus; assay: Dose required to produce negative inotropic (NI) effect in Guinea pig atria.
Cavia porcellus [5] = species: Cavia porcellus; assay: Dose required to produce negative inotropic (NI) or arrhythmia (A) effect in Guinea pig atria.
Cavia porcellus [6] = species: Cavia porcellus; assay: Dose required to produce negative inotropic (NI) effect in Guinea pig atria; MI is Minimal Activity
Cavia porcellus [7] = species: Cavia porcellus; assay: Dose required to produce 75% increase in developed tension of inotropic effect in guinea pig atria; MI is Minimal Activity

Row | Compound | Dose (Cavia porcellus [1]) [µM] | Dose (Cavia porcellus [2]) [µM] | Dose (Cavia porcellus [3]) [µM] | Dose (Cavia porcellus [4]) [µM] | Dose (Cavia porcellus [5]) [µM] | Dose (Cavia porcellus [6]) | Dose (Cavia porcellus [7])
1 | CC(=O)O[C@H]1[C@H](OC2CC[C@@]3(C)C(CC[C@@H]4[C@@H]3CC[C@]3(C)[C@@H](C5=CC(=O)OC5)CC[C@@]43O)C2)O[C@H]2[C@@H]1N(C(=O)C(F)(F)F)C[C@H]2OC(C)=O (stereo not given in full) | 0.75 | 0.65 | 0.54 | 1 | – | – | –
2 | C[C@]12CC[C@H](O[C@@H]3O[C@H](CN=[N+]=[N-])[C@@H](O)[C@H]3O)C[C@@H]1CC[C@@H]1[C@@H]2CC[C@]2(C)[C@@H](C3=CC(=O)OC3)CC[C@@]12O | – | 0.43 | 0.25 | – | 1 | – | –
3 | C[C@H]1O[C@@H](O[C@H]2[C@@H](O)C[C@H](O[C@H]3[C@@H](O)C[C@H](O[C@H]4CC[C@@]5(C)[C@H](CC[C@@H]6[C@@H]5C[C@@H](O)[C@]5(C)[C@@H](C7=CC(=O)OC7)CC[C@]65O)C4)O[C@@H]3C)O[C@@H]2C)C[C@H](O)[C@@H]1O [DIGOXIN] | – | 0.82 | 0.42 | 2.5 | – | – | –
4 | C[C@]12CC[C@H](O[C@@H]3O[C@H](CN)[C@@H](O)[C@H]3O)C[C@@H]1CC[C@@H]1[C@@H]2CC[C@]2(C)[C@@H](C3=CC(=O)OC3)CC[C@@]12O | – | 0.35 | 0.26 | – | 5 | – | –
5 | C[C@]12CCC(O[C@@H]3O[C@H]4[C@H](OC[C@H]4O)[C@H]3O)CC1CC[C@@H]1[C@@H]2CC[C@]2(C)[C@@H](C3=CC(=O)OC3)CC[C@@]12O (stereo not given in full) | – | – | 10 | – | – | Minimal activity | Minimal activity
6 | CC(=O)O[C@H]1[C@H](OC2CC[C@@]3(C)C(CCC4[C@@H]3CC[C@]3(C)[C@@H](C5=CC(=O)OC5)CC[C@@]43O)C2)O[C@H](CN=[N+]=[N-])[C@H]1OC(C)=O (stereo not given in full) | – | 0.44 | 0.3 | 2.5 | – | – | –
7 | CC(=O)OC[C@H]1O[C@@H](OC2CC[C@@]3(C)C(CC[C@@H]4[C@@H]3CC[C@]3(C)[C@@H](C5=CC(=O)OC5)CC[C@@]43O)C2)[C@H](OC(C)=O)[C@@H]1OC(C)=O (stereo not given in full) | – | 3 | 1.9 | – | – | Minimal activity | –
8 | C[C@]12CC[C@H](O)C[C@H]1CC[C@@H]1[C@@H]2CC[C@]2(C)[C@@H](C3=CC(=O)OC3)CC[C@]12O [DIGITOXIGENIN] | – | 0.64 | 0.38 | 2.5 | – | – | –
9 | CC(=O)O[C@H]1[C@H](OC2CC[C@@]3(C)C(CC[C@@H]4[C@@H]3CC[C@]3(C)[C@@H](C5=CC(=O)OC5)CC[C@@]43O)C2)O[C@H]2[C@@H]1OC[C@H]2OC(C)=O (stereo not given in full) | – | 0.53 | 0.39 | – | 1 | – | –
10 | C[C@]12CC[C@H](O[C@@H]3O[C@H](CO)[C@@H](O)[C@H]3O)C[C@@H]1CC[C@@H]1[C@@H]2CC[C@]2(C)[C@@H](C3=CC(=O)OC3)CC[C@@]12O | – | 0.64 | 0.36 | 2.5 | – | – | –
11 | C[C@]12CCC(O[C@@H]3O[C@H]4[C@H](NC[C@H]4O)[C@H]3O)CC1CC[C@@H]1[C@@H]2CC[C@]2(C)[C@@H](C3=CC(=O)OC3)CC[C@@]12O (stereo not given in full) | 1.5 | 0.86 | 0.5 | 2 | – | – | –
